pEC50, pIC50, pKi: −log10 of the molar value. Values after ≈ are worked out from the molar mass of the structure shown.
How the values were obtained:
MG-22A [1] = test: Cytotoxicity against mouse MG-22A cells assessed as reduction in cell growth by measuring lethal concentration for 72 hrs by MTT assay; format: functional
HT-1080 [2] = test: Cytotoxicity against human HT-1080 cells assessed as reduction in cell growth by measuring lethal concentration for 72 hrs by MTT assay; format: functional
[3] = tested on: Panel NCI-60 (60 carcinoma cell lines); test: Cytotoxicity against human Panel NCI-60 (60 carcinoma cell lines) assessed as reduction in cell growth incubated for 72 hrs by CCK-8 assay; format: functional, cell-based
Rhizoctonia solani = test: Antifungal activity against Rhizoctonia solani assessed as inhibition of fungal growth at 1 microg/ml relative to control; format: functional
[4] = target: Sigma non-opioid intracellular receptor 1 (Cavia porcellus, UniProt Q60492); test: Binding affinity to guinea pig sigma 1 receptor assessed as inhibition constant
Sigma non-opioid intracellular receptor 1, sequence (Q60492 whole entry): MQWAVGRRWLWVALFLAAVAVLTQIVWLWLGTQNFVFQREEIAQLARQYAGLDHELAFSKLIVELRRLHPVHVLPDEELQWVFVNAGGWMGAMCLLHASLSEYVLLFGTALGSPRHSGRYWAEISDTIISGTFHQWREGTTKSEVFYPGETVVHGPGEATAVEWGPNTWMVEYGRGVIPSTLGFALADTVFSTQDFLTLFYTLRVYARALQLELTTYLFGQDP

[5] = Agonist activity at rat GPR81 transfected in T-REX-CHO cells by cAMP assay; format: cell-based
[6] = target: Hydroxycarboxylic acid receptor 2 (Rattus norvegicus, UniProt Q80Z39); test: Agonist activity at rat GPR109A transfected in T-REX-CHO cells by cAMP assay; format: cell-based
Hydroxycarboxylic acid receptor 2, sequence (Q80Z39 whole entry): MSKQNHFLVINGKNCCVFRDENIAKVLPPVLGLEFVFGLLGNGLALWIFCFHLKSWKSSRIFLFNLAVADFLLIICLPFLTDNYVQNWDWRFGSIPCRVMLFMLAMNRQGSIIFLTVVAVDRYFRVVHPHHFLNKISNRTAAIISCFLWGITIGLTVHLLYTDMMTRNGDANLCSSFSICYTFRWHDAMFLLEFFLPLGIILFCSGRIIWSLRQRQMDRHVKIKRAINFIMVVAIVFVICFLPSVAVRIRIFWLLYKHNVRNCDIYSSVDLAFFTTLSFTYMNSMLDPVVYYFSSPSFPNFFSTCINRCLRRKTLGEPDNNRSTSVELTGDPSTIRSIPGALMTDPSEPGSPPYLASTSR

[7] = tested on: Staphylococcus epidermidis; test: Antibacterial activity against Staphylococcus epidermidis assessed as inhibition of bacterial growth incubated for 24 hrs by nutrient agar plate method; format: functional
Escherichia coli [8] = test: Antibacterial activity against Escherichia coli PTCC 1330 assessed as reduction in cell growth incubated for 24 hrs by Mueller-Hinton Broth micro dilution method; format: functional
Salmonella typhimurium = test: Antibacterial activity against Salmonella enterica subsp. enterica serovar Typhimurium PTCC 1609 assessed as reduction in cell growth incubated for 24 hrs by Mueller-Hinton Broth micro dilution method; format: functional
Pseudomonas aeruginosa = test: Antibacterial activity against Pseudomonas aeruginosa PTCC 1074 assessed as reduction in cell growth incubated for 24 hrs by Mueller-Hinton Broth micro dilution method; format: functional
Staphylococcus aureus [9] = test: Antibacterial activity against Staphylococcus aureus PTCC 1112 assessed as reduction in cell growth incubated for 24 hrs by Mueller-Hinton Broth micro dilution method; format: functional
MG-22A [10] = test: Cytotoxicity against mouse MG-22A cells assessed as reduction in cell growth measured for 72 hrs by crystal violet staining based analysis; format: functional
HT-1080 [11] = test: Cytotoxicity against human HT-1080 cells assessed as reduction in cell growth measured for 72 hrs by crystal violet staining based analysis; format: functional; conditions: HT-1080, 72 h
Vibrio cholerae = test: Antibacterial activity against Vibrio cholerae assessed as inhibition of bacterial growth; format: functional
Escherichia coli [12] = test: Antibacterial activity against Escherichia coli assessed as reduction in bacterial growth incubated for 12 hrs by broth micr-dilution method; format: functional
Staphylococcus aureus [13] = test: Antibacterial activity against Staphylococcus aureus assessed as reduction in bacterial growth incubated for 12 hrs by broth micr-dilution method; format: functional
Bacillus subtilis = test: Antibacterial activity against Bacillus subtilis assessed as reduction in bacterial growth incubated for 12 hrs by broth micr-dilution method; format: functional
HCT-116 = test: Antiproliferative activity against human HCT-116 cells assessed as reduction in cell viability incubated for 72 hrs by MTT assay; format: functional, cell-based; conditions: HCT-116, 72 h

Q: For `CC[Si](C)(CC)OCC[N+]1(C)CCc2ccccc2C1.[I-]` (stereo not given), which LC50 (MG-22A [1]) is on record?
A: 2 µg/mL

Q: What about the LC50 (HT-1080 [2]) of the same compound?
A: < 1 µg/mL

Q: With `CCCC[Si](C)(C)Oc1ccc(C(=O)N[C@@H](Cc2ccc(-c3ccccc3)cc2)C(=O)NC2CC(C)(C)NC(C)(C)C2)cc1` as the compound, how does the pIC50 [3] read?
A: 5.82

Q: For `Cn1cc(C(=O)C(C#N)c2ccc([Si](C)(C)C)cc2)c(C(F)F)n1` (stereo not given), which inhibition at 1 µg/mL (Rhizoctonia solani) is on record?
A: 91.2%

Q: With `c1ccc(CN2CC[Si]3(CCCc4ccccc43)CC2)cc1` as the compound, how does the pKi [4] read?
A: 6.52

Q: Which results are given for `CCOc1cc(Cl)c(C(=O)NC(=O)Nc2nc3c(s2)C[Si](C)(C)CC3)cc1N1CCOCC1`?
A: pEC50 [5]: 6.00; pEC50 [6]: 5.92

Q: Which MIC [7] does the source give for `CC(C)(C)[Si](c1ccccc1)(c1ccccc1)c1cccc(CN(Cc2ccccn2)Cc2ccccn2)c1O` here?
A: 1.2 µg/mL (≈ 2.21 µM)

Q: Which MIC (Escherichia coli [8]) does the source give for `C[Si](C)(C)C(S)(C(=S)CCCCn1nnc(SC(=O)c2ccccc2)n1)[Si](C)(C)C` here?
A: 3.91 µg/mL (≈ 7.87 µM)

Q: What about the MIC (Salmonella typhimurium) of the same compound?
A: 3.91 µg/mL (≈ 7.87 µM)

Q: And the MIC (Pseudomonas aeruginosa)?
A: 3.91 µg/mL (≈ 7.87 µM)

Q: What about the MIC (Staphylococcus aureus [9]) of the same compound?
A: 3.91 µg/mL (≈ 7.87 µM)

Q: With `CCCCCSc1nnn(CCCCC(=S)C(S)([Si](C)(C)C)[Si](C)(C)C)n1` as the compound, how does the MIC (Escherichia coli [8]) read?
A: 3.91 µg/mL (≈ 8.45 µM)

Q: What about the MIC (Salmonella typhimurium) of the same compound?
A: 3.91 µg/mL (≈ 8.45 µM)

Q: And the MIC (Pseudomonas aeruginosa)?
A: 3.91 µg/mL (≈ 8.45 µM)

Q: What about the MIC (Staphylococcus aureus [9]) of the same compound?
A: 3.91 µg/mL (≈ 8.45 µM)

Q: Which results are given for `C[Si](C)(C)c1ccc([Si](C)(CCCN2CCCCC2)c2ccc([Si](C)(C)C)o2)o1`?
A: IC50 (MG-22A [10]): 3 µg/mL (≈ 6.7 µM); IC50 (HT-1080 [11]): 3 µg/mL (≈ 6.7 µM)

Q: With `COc1ccc(CN2CC[Si]3(CCCc4ccccc43)CC2)cc1` as the compound, how does the pKi [4] read?
A: 6.52

Q: With `CCN(CC)CCC[Si](C)(c1ccc([Si](C)(C)C)o1)c1ccc([Si](C)(C)C)o1` as the compound, how does the IC50 (MG-22A [10]) read?
A: 3 µg/mL (≈ 6.88 µM)

Q: And the IC50 (HT-1080 [11])?
A: 3 µg/mL (≈ 6.88 µM)

Q: Which MIC50 (Vibrio cholerae) does the source give for `Cc1cc(=O)n(Cc2cn(CCC[Si-]345OCC[N+]3(CCO4)CCO5)nn2)c(=O)n1Cc1cn(CCC[Si-]234OCC[N+]2(CCO3)CCO4)nn1` (stereo not given) here?
A: 0.18 µg/mL (≈ 0.25 µM)

Q: And the MIC50 (Escherichia coli [12])?
A: 0.18 µg/mL (≈ 0.25 µM)

Q: What about the MIC50 (Staphylococcus aureus [13]) of the same compound?
A: 0.18 µg/mL (≈ 0.25 µM)

Q: What about the MIC50 (Bacillus subtilis) of the same compound?
A: 0.18 µg/mL (≈ 0.25 µM)

Q: For `CC(C)(C)[Si](C)(C)c1cccc(CN(Cc2ccccn2)Cc2ccccn2)c1O`, which MIC [7] is on record?
A: 1.2 µg/mL (≈ 2.86 µM)

Q: With `CC[Si](CC)(CC)OC1OC(=O)C(Br)=C1Br` (stereo not given) as the compound, how does the pIC50 (HCT-116) read?
A: 5.80

Q: What does the source list for `O=c1c(F)cn(Cc2cn(CCC[Si-]345OCC[N+]3(CCO4)CCO5)nn2)c(=O)n1Cc1cn(CCC[Si-]234OCC[N+]2(CCO3)CCO4)nn1` (stereo not given)?
A: MIC50 (Vibrio cholerae): 0.18 µg/mL (≈ 0.249 µM); MIC50 (Escherichia coli [12]): 0.18 µg/mL (≈ 0.249 µM); MIC50 (Staphylococcus aureus [13]): 0.18 µg/mL (≈ 0.249 µM); MIC50 (Bacillus subtilis): 0.18 µg/mL (≈ 0.249 µM)

Q: With `C[Si](CCCN1CCOCC1)(c1ccco1)c1ccco1` as the compound, how does the IC50 (MG-22A [10]) read?
A: 38 µg/mL (≈ 124 µM)

Q: What about the IC50 (HT-1080 [11]) of the same compound?
A: 100 µg/mL (≈ 327 µM)

Q: Which MIC (Escherichia coli [8]) does the source give for `C[Si](C)(C)C(S)(C(=S)CCCCn1nnc(SCc2ccccc2)n1)[Si](C)(C)C` here?
A: 3.91 µg/mL (≈ 8.1 µM)

Q: What about the MIC (Salmonella typhimurium) of the same compound?
A: 3.91 µg/mL (≈ 8.1 µM)

Q: What about the MIC (Pseudomonas aeruginosa) of the same compound?
A: 3.91 µg/mL (≈ 8.1 µM)

Q: And the MIC (Staphylococcus aureus [9])?
A: 3.91 µg/mL (≈ 8.1 µM)

Q: For `CC(C)[Si](c1cccc(CN(Cc2ccccn2)Cc2ccccn2)c1O)(C(C)C)C(C)C`, which MIC [7] is on record?
A: 1.2 µg/mL (≈ 2.6 µM)

Q: With `CCC[Si](C)(C)Oc1ccc(C(=O)N[C@@H](Cc2ccc(OCc3c(Cl)cccc3Cl)cc2)C(=O)NC2CC(C)(C)NC(C)(C)C2)cc1` as the compound, how does the pIC50 [3] read?
A: 5.82

Q: Which LC50 (MG-22A [1]) does the source give for `CCCCCC[Si](C)(CCCCCC)OCC[N+]1(C)CCc2ccccc2C1.[I-]` (stereo not given) here?
A: 1 µg/mL

Q: What about the LC50 (HT-1080 [2]) of the same compound?
A: < 1 µg/mL

Q: With `CC1(C)CC(NC(=O)[C@H](Cc2ccc(OCc3c(Cl)cccc3Cl)cc2)NC(=O)c2ccc(OCC[Si](C)(C)C)cc2)CC(C)(C)N1` as the compound, how does the pIC50 [3] read?
A: 5.82

Q: With `C[Si](C)(C)c1ccc([Si](C)(CCCN2CCOCC2)c2ccc([Si](C)(C)C)o2)o1` as the compound, how does the IC50 (MG-22A [10]) read?
A: 3 µg/mL (≈ 6.67 µM)

Q: What about the IC50 (HT-1080 [11]) of the same compound?
A: 3 µg/mL (≈ 6.67 µM)

Q: Which results are given for `CCCCSc1nnn(CCCCC(=S)C(S)([Si](C)(C)C)[Si](C)(C)C)n1`?
A: MIC (Escherichia coli [8]): 3.91 µg/mL (≈ 8.71 µM); MIC (Salmonella typhimurium): 3.91 µg/mL (≈ 8.71 µM); MIC (Pseudomonas aeruginosa): 3.91 µg/mL (≈ 8.71 µM); MIC (Staphylococcus aureus [9]): 3.91 µg/mL (≈ 8.71 µM)

Q: With `CCCCCCCCCCCCCCCC[Si](C)(C)OCC[N+]1(C)CCc2ccccc2C1.[I-]` (stereo not given) as the compound, how does the LC50 (MG-22A [1]) read?
A: 1 µg/mL

Q: And the LC50 (HT-1080 [2])?
A: < 1 µg/mL

Q: What does the source list for `CCCC[Si](CC)(CCCC)OCC[N+]1(C)CCc2ccccc2C1.[I-]` (stereo not given)?
A: LC50 (MG-22A [1]): 2 µg/mL; LC50 (HT-1080 [2]): < 1 µg/mL

Q: Which IC50 (MG-22A [10]) does the source give for `CCN(CC)CCC[Si](C)(c1ccc([Si](CC)(CC)CC)o1)c1ccc([Si](CC)(CC)CC)o1` here?
A: 3 µg/mL (≈ 5.77 µM)

Q: What about the IC50 (HT-1080 [11]) of the same compound?
A: 3 µg/mL (≈ 5.77 µM)

Q: With `C[Si](C)(C)c1cccc(CN(Cc2ccccn2)Cc2ccccn2)c1O` as the compound, how does the MIC [7] read?
A: 1.2 µg/mL (≈ 3.18 µM)

Q: What does the source list for `CCOc1cc(Cl)c(C(=O)NC(=O)Nc2nc3c(s2)C[Si](c2ccccc2)(c2ccccc2)CC3)cc1N1CCOCC1`?
A: pEC50 [5]: 6.00; pEC50 [6]: 5.92

Q: With `CCOP(=O)(OCC)C(NC(=O)[C@H](Cc1ccc(-c2ccccc2)cc1)NC(=O)c1ccc(OCC[Si](C)(C)C)cc1)P(=O)(OCC)OCC` as the compound, how does the pIC50 [3] read?
A: 5.82

Q: With `c1ccc(CCN2CC[Si]3(CCCc4ccccc43)CC2)cc1` as the compound, how does the pKi [4] read?
A: 6.52

Q: With `O=C1OC(O)C(Br)=C1Br` (stereo not given) [MUCOBROMIC ACID] as the compound, how does the pIC50 (HCT-116) read?
A: 5.89
